US6548494B1, “Tricyclic inhibitors of poly(ADP-ribose) polymerases” (Agouron Pharmaceuticals, Inc., priority 1999, dated 2003)
pKi: −log10 of the molar value. Several values for one entry are separate records, joined by “and”; a condition that tells them apart may be missing. Equal entries are not always repeated.

target: purified PARP protein (Homo sapiens, UniProt P09874); test: PARP enzyme inhibition assay; format: biochemical; settings: 20 nM purified PARP (5 nM for tight-binding inhibitors), 500 μM NAD+, 25° C.; several values in one cell = repeat determinations; read-out: Inhibition Constant Ki
Sequence (P09874 whole entry): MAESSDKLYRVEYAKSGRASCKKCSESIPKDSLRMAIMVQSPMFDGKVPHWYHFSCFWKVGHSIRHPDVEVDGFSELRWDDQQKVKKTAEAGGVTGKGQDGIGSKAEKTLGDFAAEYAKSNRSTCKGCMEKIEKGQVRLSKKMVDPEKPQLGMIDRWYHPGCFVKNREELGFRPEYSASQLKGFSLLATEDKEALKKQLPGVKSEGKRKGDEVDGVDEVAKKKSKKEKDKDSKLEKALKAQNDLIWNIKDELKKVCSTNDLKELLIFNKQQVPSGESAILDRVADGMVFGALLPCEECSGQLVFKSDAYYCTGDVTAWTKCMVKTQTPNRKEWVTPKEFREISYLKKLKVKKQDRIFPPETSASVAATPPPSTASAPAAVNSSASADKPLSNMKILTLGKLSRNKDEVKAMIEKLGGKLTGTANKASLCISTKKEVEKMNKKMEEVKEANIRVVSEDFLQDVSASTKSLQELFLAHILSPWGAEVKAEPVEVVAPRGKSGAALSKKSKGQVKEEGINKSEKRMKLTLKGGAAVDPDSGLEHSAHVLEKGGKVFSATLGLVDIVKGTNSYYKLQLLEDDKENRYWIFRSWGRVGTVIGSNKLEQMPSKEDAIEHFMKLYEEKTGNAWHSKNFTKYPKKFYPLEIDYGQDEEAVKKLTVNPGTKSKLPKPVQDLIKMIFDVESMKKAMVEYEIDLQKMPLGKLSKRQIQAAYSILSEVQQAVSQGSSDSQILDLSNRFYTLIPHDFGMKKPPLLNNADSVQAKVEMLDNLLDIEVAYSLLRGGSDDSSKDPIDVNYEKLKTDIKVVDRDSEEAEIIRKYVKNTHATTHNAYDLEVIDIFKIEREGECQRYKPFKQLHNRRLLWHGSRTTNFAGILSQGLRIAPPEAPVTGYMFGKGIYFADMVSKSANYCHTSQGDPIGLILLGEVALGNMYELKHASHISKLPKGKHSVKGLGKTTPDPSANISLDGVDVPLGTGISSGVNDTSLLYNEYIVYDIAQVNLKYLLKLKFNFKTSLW

Point of comparison: `CC(C)CC(O)c1ccc(-c2nc3cccc4c3n2CCNC4=O)cc1` (centres unmarked) [Example 228, 1-[4-(1-Hydroxy-3-methyl-butyl)-phenyl]-8,9-dihydro-7H-2,7,9a-triaza-benzo[cd]azulen-6-one], pKi 8.34. Against it:
- CN(C)Cc1ccc(-c2nc3cccc4c3n2C[C@H](CO)NC4=O)cc1 [Example 238, (R)-1-(4-Dimethylaminomethyl-phenyl)-8-hydroxymethyl-8,9-dihydro-7H-2,7,9a-triaza-benzo[cd]azulen-6-one] — 0.20 log units lower, 8.14
- O=C1NCCn2c(-c3ccc(CNCc4ccccc4)cc3)nc3cccc1c32 [Example 196, 1-[4-(Benzylamino-methyl)-phenyl]-8,9-dihydro-7H-2,7,9a-triaza-benzo[cd]azulen-6-one] — within 0.2 log units, 8.41
- O=C1NCCn2c(-c3ccc(CNCCc4ccc(F)cc4)cc3)nc3cccc1c32 [Example 185, 1-(4-{[2-(4-Fluoro-phenyl)-ethylamino]-methyl}-phenyl)-2,7,8,9-tetrahydro-2,7,9a-triaza-benzo[cd]azulen-6-one] — within 0.2 log units, 8.25
- CN(CCc1ccccn1)Cc1ccc(-c2nc3cccc4c3n2CCNC4=O)cc1 [Example 202, 1-(4-{[Methyl-(2-pyridin-2-yl-ethyl)-amino]-methyl}-phenyl)-8,9-dihydro-7H-2,7,9a-triaza-benzo[cd]azulen-6-one] — within 0.2 log units, 8.49
- CC(C)(C)OC(=O)[C@H]1CCCN1Cc1ccc(-c2nc3cccc4c3n2CCNC4=O)cc1 [Example 218, (R)-1-[4-(6-oxo-6,7,8,9-Tetrahydro-2,7,9a-triaza-benzo[cd]azulen-1-yl)-benzyl]-pyrrolidine-2-carboxylic Acid tert-Butyl Ester] — 0.57 log units lower, 7.77
- CN1CCCC1CCNCc1ccc(-c2nc3cccc4c3n2CCNC4=O)cc1 (centres unmarked) [Example 194, 1-(4-{[2-(1-Methyl-pyrrolidin-2-yl)-ethylamino]-methyl}-phenyl)-8,9-dihydro-7H-2,7,9a-triaza-benzo[cd]azulen-6-one] — within 0.2 log units, 8.21
- O=C1N[C@@H](COCc2ccccc2)Cn2c(-c3ccc(CO)cc3)nc3cccc1c32 [Example 238a, (R)-8-Benzyloxymethyl-1-(4-hydroxymethyl-phenyl)-8,9-dihydro-7H-2,7,9a-triaza-benzo[cd]azulen-6-one] — 0.83 log units lower, 7.51
- O=C1NCCn2c(-c3ccc(CN4CCC[C@@H]4C(=O)OCc4ccccc4)cc3)nc3cccc1c32 [Example 217, (R)-1-[4-(6-oxo-6,7,8,9-Tetrahydro-2,7,9a-triaza-benzo[cd]azulen-1-yl)-benzyl]-pyrrolidine-2-carboxylic Acid Benzyl Ester] — 0.75 log units lower, 7.59
- CN(CCc1ccncc1)Cc1ccc(-c2nc3cccc4c3n2CCNC4=O)cc1 [Example 205, 1-(4-{[Methyl-(2-pyridin-4-yl-ethyl)-amino]-methyl}-phenyl)-8,9-dihydro-7H-2,7,9a-triaza-benzo[cd]azulen-6-one] — within 0.2 log units, 8.33
- O=C1NCCn2c(-c3ccc(/C=C/c4ccccc4)cc3)nc3cccc1c32 [Example 247c, 1-[4-((E)-Styryl)-phenyl]-8,9-dihydro-7H-2,7,9a-triaza-benzo[cd]azulen-6-one] — 0.54 log units lower, 7.80
- C[C@H]1Cn2c(-c3ccc(CO)cc3)nc3cccc(c32)C(=O)N1 [Example 221a, (S)-1-(4-Hydroxymethyl-phenyl)-8-methyl-8,9-dihydro-7H-2,7,9a-triaza-benzo[cd]azulen-6-one] — 0.34 log units lower, 8.00
- O=C1NCCn2c(-c3ccco3)nc3cccc1c32 [Example 20, 1-Furan-2-yl-8,9-dihydro-7H-2,7,9a-triaza-benzo[cd]azulen-6-one] — 0.42 log units lower, 7.92
- O=C1NCCn2c(-c3ccc(CNCCc4ccccc4)cc3)nc3cccc1c32 [Example 183, 1-[4-(Phenethylamino-methyl)-phenyl]-2,7,8,9-tetrahydro-2,7a-triaza-benzo[cd]azulen-6-one] — 0.24 log units lower, 8.10
- Cc1ccc(C)n1Cc1ccc(-c2nc3cccc4c3n2CCNC4=O)cc1 [Example 244, 1-[4-(2,5-Dimethyl-pyrrol-1-ylmethyl)-phenyl]-8,9-dihydro-7H-2,7,9a-triaza-benzo[cd]azulen-6-one] — 0.49 log units lower, 7.85
- O=C1NCCn2c(-c3ccc(CN4CCC[C@H]4CO)cc3)nc3cccc1c32 [Example 181, 1-[4-((2S)-2-Hydroxymethyl-pyrrolidin-1-ylmethyl)-phenyl]-2,7,8,9-tetrahydro-2,7,9a-triaza-benzo[cd]azulen-6-one] — within 0.2 log units, 8.41
- O=C1NCCn2c(-c3ccc(CNCc4ccc5c(c4)OCO5)cc3)nc3cccc1c32 [Example 191, 1-(4-{[(Benzo[1,3]dioxol-5-ylmethyl)-amino]-methyl}-phenyl)-8,9-dihydro-7H-2,7,9a-triaza-benzo[cd]azulen-6-one] — within 0.2 log units, 8.37
- O=C1NCCn2c(-c3ccc(CNC4CCc5ccccc54)cc3)nc3cccc1c32 (centres unmarked) [Example 192, 1-[4-(Indan-1-ylaminomethyl)-phenyl]-8,9-dihydro-7H-2,7,9a-triaza-benzo[cd]azulen-6-one] — within 0.2 log units, 8.35
- CN(Cc1ccc(-c2nc3cccc4c3n2CCNC4=O)cc1)CC(O)CO (centres unmarked) [Example 176, 1-(4-{[(2,3-Dihydroxy-propyl)-methyl-amino]-methyl}-phenyl)-8,9-dihydro-7H-2,7,9a-triaza-benzo[cd]azulen-6-one] — 0.29 log units lower, 8.05
- O=C1NCCn2c(-c3ccccc3)cc3cccc1c32 [Example 33, 6-Phenyl-3,4-dihydro-2H-[1,4]diazepino[6,7,1-hi]indol-1-one] — 0.50 log units lower, 7.84
- CCOC(=O)CCN(Cc1ccc(-c2nc3cccc4c3n2CCNC4=O)cc1)Cc1ccco1 [Example 193, 3-{[4-(6-oxo-6,7,8,9-Tetrahydro-2,7,9a-triaza-benzo[cd]azulen-1-yl)-benzyl]-furan-2-ylmethyl-amino}-propionic Acid Ethyl Ester] — 0.38 log units lower, 7.96
- COC[C@@H]1CC[C@@H](COC)N1Cc1ccc(-c2nc3cccc4c3n2CCNC4=O)cc1 [Example 216, 1-[4-((2S,5S)-2,5-bis-Methoxymethyl-pyrrolidin-1-ylmethyl)-phenyl]-8,9-dihydro-7H-2,7,9a-triaza-benzo[cd]azulen-6-one] — 0.77 log units lower, 7.57
- O=C1NCCn2c(-c3ccc(C4CCCCN4CC4CC4)cc3)nc3cccc1c32 (centres unmarked) [Example 150, 1-[4-(1-Cyclopropylmethyl-piperidin-2-yl)-phenyl]-8,9-dihydro-7H-2,7,9a-triaza-benzo[cd]azulen-6-one] — within 0.2 log units, 8.30
- CCCCN(CCO)Cc1ccc(-c2nc3cccc4c3n2CCNC4=O)cc1 [Example 180, 1-(4-{[Butyl-(2-hydroxy-ethyl)-amino]-methyl}-phenyl)-2,7,8,9-tetrahydro-2,7,9a-triaza-benzo[cd]azulen-6-one] — 0.21 log units lower, 8.13
- CC(C)CC(c1ccc(-c2nc3cccc4c3n2CCNC4=O)cc1)N1CCCC1 (centres unmarked) [Example 230, 1-[4-(3-Methyl-1-pyrrolidin-1-yl-butyl)-phenyl]-8,9-dihydro-7H-2,7,9a-triaza-benzo[cd]azulen-6-one] — within 0.2 log units, 8.28
- O=C1NCCn2c(-c3ccc(CNCCc4ccncc4)cc3)nc3cccc1c32 [Example 206, 1-{4-[(2-Pyridin-4-yl-ethylamino)-methyl]-phenyl}-8,9-dihydro-7H-2,7,9a-triaza-benzo[cd]azulen-6-one] — within 0.2 log units, 8.19
- CC1(C)CC2CC(C)(CN2Cc2ccc(-c3nc4cccc5c4n3CCNC5=O)cc2)C1 (centres unmarked) [Example 215, 1-[4-(1,3,3-Trimethyl-6-aza-bicyclo[3.2.1]oct-6-ylmethyl)-phenyl]-8,9-dihydro-7H-2,7,9a-triaza-benzo[cd]azulen-6-one] — 0.38 log units lower, 7.96
- O=C1NCCn2c(-c3ccc(CN4CC=CCC4)cc3)nc3cccc1c32 [Example 182, 1-[4-(3,6-Dihydro-2H-pyridin-1-ylmethyl)-phenyl]-2,7,8,9-tetrahydro-2,7,9a-triaza-benzo[cd]azulen-6-one] — within 0.2 log units, 8.33
- CC(C)(C)OC(=O)NC1CCN(Cc2ccc(-c3nc4cccc5c4n3CCNC5=O)cc2)C1 (centres unmarked) [Example 219, {1-[4-(6-oxo-6,7,8,9-Tetrahydro-2,7,9a-triaza-benzo[cd]azulen-1-yl)-benzyl]-pyrrolidin-3-yl}-carbamic Acid tert-Butyl Ester] — 0.38 log units lower, 7.96
- O=C1NCCn2c(-c3ccc(C(Cc4ccccc4)N4CCCC4)cc3)nc3cccc1c32 (centres unmarked) [Example 247, 1-[4-(2-Phenyl-1-pyrrolidin-1-yl-ethyl)-phenyl]-8,9-dihydro-7H-2,7,9a-triaza-benzo[cd]azulen-6-one] — within 0.2 log units, 8.27
- C[C@H]1Cn2c(-c3ccc(CN(C)C)cc3)nc3cccc(c32)C(=O)N1 [Example 221, (S)-1-(4-Dimethylaminomethyl-phenyl)-8-methyl-8,9-dihydro-7H-2,7,9a-triaza-benzo[cd]azulen-6-one] — within 0.2 log units, 8.30
- O=C1NCCn2c(-c3ccc(CN4CCc5ccccc5C4)cc3)nc3cccc1c32 [Example 198, 1-[4-(3,4-Dihydro-1H-isoquinolin-2-ylmethyl)-phenyl]-8,9-dihydro-7H-2,7,9a-triaza-benzo[cd]azulen-6-one] — 0.24 log units lower, 8.10

With `CNCc1ccc(-c2nc3cccc4c3n2C[C@H](CO)NC4=O)cc1` [Example 240, (R)-8-Hydroxymethyl-1-(4-methylaminomethyl-phenyl)-8,9-dihydro-7H-2,7,9a-triaza-benzo[cd]azulen-6-one] the pKi was 8.38 and 8.35.
`O=C1NCCn2c(Cc3ccccc3)nc3cccc1c32` [Example 21, 1-Benzyl-8,9-dihydro-7H-2,7,9a-triaza-benzo[cd]azulen-6-one] was tested, and the pKi was 7.86 and 7.89.
For `O=Cc1cn2c3c(cccc13)C(=O)NCC2` [Example 45, 1-Oxo-1,2,3,4-tetrahydro-[1,4]diazepino[6,7,1-hi]indole-7-carbaldehyde], the pKi was 6.78 and 6.73.
With `CNCc1ccc(-c2nc3cccc4c3n2C[C@H](C)NC4=O)cc1` [Example 222, (S)-8-Methyl-1-(4-methylaminomethyl-phenyl)-8,9-dihydro-7H-2,7,9a-triaza-benzo[cd]azulen-6-one] the pKi was 8.70 and 8.64 and 8.46.
`CC(O)c1ccc(-c2nc3cccc4c3n2CCNC4=O)cc1` (centres unmarked) [Example 245a, 1-[4-(1-Hydroxy-ethyl)-phenyl]-8,9-dihydro-7H-2,7,9a-triaza-benzo[cd]azulen-6-one] was tested, and the pKi was 8.28.
In the case of `O=C1NCCN2CCc3cccc1c32` [Example 41, 3,4,6,7-Tetrahydro-2H-[1,4]diazepino[6,7,1-hi]indol-1-one, reference compound], the pKi was 7.27 and 7.22.
